Laboratory results as given in the supplement of paper PMC6045584.
± gives the standard deviation of the averaged measurements.

Experiments:
BI-2536 [1] = compound: T1, CC[C@@H]1C(=O)N(C)c2cnc(Nc3ccc(C(=O)NC4CCN(C)CC4)cc3OC)nc2N1C1CCCC1 [BI-2536]; assay: area under dose-response curve of surviving fraction (unscaled, Aref=0) (surviving fraction x log10(nM)); higher = more resistant; conditions: exposure time: 5 days; dose range 0.5-1000 nM
In short: (§1)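 Surviving fractions were fitted by 3-parameter logistic regression in the drc R package to give dose-response survival curves. They came from tumour cell lines treated for five days with eight inhibitor concentrations from 0.5 to 1000 nM and read by CellTiter-Glo luminescence against DMSO-only wells. The area under the curve is the unscaled activity area. It was calculated over log10 dose with Aref = 0.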

AFATINIB [2] = compound: T2, CN(C)C/C=C/C(=O)Nc1cc2c(Nc3ccc(F)c(Cl)c3)ncnc2cc1O[C@H]1CCOC1 [AFATINIB]; assay: as above; conditions: exposure time: 5 days; dose range 0.5-1000 nM
In short: as §1

TIOGUANINE [3] = compound: T3, Nc1nc2[nH]cnc2c(=S)[nH]1 [TIOGUANINE]; assay: as above; conditions: exposure time: 5 days; dose range 0.5-1000 nM
In short: as §1

SAPACITABINE [4] = compound: T4, CCCCCCCCCCCCCCCC(=O)Nc1ccn([C@@H]2O[C@H](CO)[C@@H](O)[C@@H]2C#N)c(=O)n1 [SAPACITABINE]; assay: as above; conditions: exposure time: 5 days; dose range 0.5-1000 nM
In short: as §1

CANERTINIB [5] = compound: T5, C=CC(=O)Nc1cc2c(Nc3ccc(F)c(Cl)c3)ncnc2cc1OCCCN1CCOCC1 [CANERTINIB]; assay: as above; conditions: exposure time: 5 days; dose range 0.5-1000 nM
In short: as §1

[6] = compound: Cn1cc(C2=Nc3cc(NC(=O)C(N)C4CCCCC4)cc4c3C2=CNNC4=O)cn1; assay: as above; conditions: exposure time: 5 days; dose range 0.5-1000 nM
In short: as §1

MDV3100 [7] = compound: T6, CNC(=O)c1ccc(N2C(=S)N(c3ccc(C#N)c(C(F)(F)F)c3)C(=O)C2(C)C)cc1F [MDV3100]; assay: as above; conditions: exposure time: 5 days; dose range 0.5-1000 nM
In short: as §1

SNX-5422 [8] = compound: T7, CC1(C)CC(=O)c2c(C(F)(F)F)nn(-c3ccc(C(N)=O)c(N[C@H]4CC[C@H](OC(=O)CN)CC4)c3)c2C1 [SNX-5422]; assay: as above; conditions: exposure time: 5 days; dose range 0.5-1000 nM
In short: as §1

BI-2536 [9] = compound: T1, BI-2536; assay: surviving fraction relative to DMSO-only wells; higher = less growth inhibition; conditions: exposure time: 5 days
In short: (§2)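 In 384-well plates, 250–500 log-phase tumour cells per well were given 24 hours before five days of continuous exposure to inhibitors at 0.5, 1, 5, 10, 50, 100, 500 and 1000 nM. Surviving fraction is luminescence from CellTiter-Glo, normalised to the median of wells containing DMSO alone. Reading took place after 10 minutes at room temperature.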

AFATINIB [10] = compound: T2, AFATINIB; assay: as above; conditions: exposure time: 5 days
In short: as §2

TIOGUANINE [11] = compound: T3, TIOGUANINE; assay: as above; conditions: exposure time: 5 days
In short: as §2

SAPACITABINE [12] = compound: T4, SAPACITABINE; assay: as above; conditions: exposure time: 5 days
In short: as §2

CANERTINIB [13] = compound: T5, CANERTINIB; assay: as above; conditions: exposure time: 5 days
In short: as §2

[14] = compound: Cn1cc(C2=Nc3cc(NC(=O)C(N)C4CCCCC4)cc4c3C2=CNNC4=O)cn1; assay: as above; conditions: exposure time: 5 days
In short: as §2

MDV3100 [15] = compound: T6, MDV3100; assay: as above; conditions: exposure time: 5 days
In short: as §2

SNX-5422 [16] = compound: T7, SNX-5422; assay: as above; conditions: exposure time: 5 days
In short: as §2

## PCI30 HEADNECK
BI-2536 [1]
  area under dose-response curve: 1.08
AFATINIB [2]
  area under dose-response curve: 1.61
TIOGUANINE [3]
  area under dose-response curve: 3.19
SAPACITABINE [4]
  area under dose-response curve: 2.94
CANERTINIB [5]
  area under dose-response curve: 2.01
[6]
  area under dose-response curve: 2.65
MDV3100 [7]
  area under dose-response curve: 3.18
SNX-5422 [8]
  area under dose-response curve: 2.2
BI-2536 [9]; 0.5 nM
  surviving fraction: 0.988 ± 0.027
BI-2536 [9]; 1 nM
  surviving fraction: 0.689 ± 0.054
BI-2536 [9]; 5 nM
  surviving fraction: 0.128 ± 0.015
BI-2536 [9]; 10 nM
  surviving fraction: 0.149 ± 0.01
BI-2536 [9]; 50 nM
  surviving fraction: 0.286 ± 0.029
BI-2536 [9]; 100 nM
  surviving fraction: 0.337 ± 0.02
BI-2536 [9]; 500 nM
  surviving fraction: 0.357 ± 0.0049
BI-2536 [9]; 1000 nM
  surviving fraction: 0.255 ± 0.011
AFATINIB [10]; 0.5 nM
  surviving fraction: 1.01 ± 0.1
AFATINIB [10]; 1 nM
  surviving fraction: 0.94 ± 0.073
AFATINIB [10]; 5 nM
  surviving fraction: 0.616 ± 0.019
AFATINIB [10]; 10 nM
  surviving fraction: 0.459 ± 0.0087
AFATINIB [10]; 50 nM
  surviving fraction: 0.4 ± 0.022
AFATINIB [10]; 100 nM
  surviving fraction: 0.358 ± 0.035
AFATINIB [10]; 500 nM
  surviving fraction: 0.241 ± 0.063
AFATINIB [10]; 1000 nM
  surviving fraction: 0.064 ± 0.011
TIOGUANINE [11]; 0.5 nM
  surviving fraction: 0.892 ± 0.097
TIOGUANINE [11]; 1 nM
  surviving fraction: 0.847 ± 0.013
TIOGUANINE [11]; 5 nM
  surviving fraction: 0.978 ± 0.097
TIOGUANINE [11]; 10 nM
  surviving fraction: 1.02 ± 0.047
TIOGUANINE [11]; 50 nM
  surviving fraction: 1.02 ± 0.063
TIOGUANINE [11]; 100 nM
  surviving fraction: 1.03 ± 0.016
TIOGUANINE [11]; 500 nM
  surviving fraction: 0.918 ± 0.045
TIOGUANINE [11]; 1000 nM
  surviving fraction: 0.88 ± 0.072
SAPACITABINE [12]; 0.5 nM
  surviving fraction: 0.899 ± 0.053
SAPACITABINE [12]; 1 nM
  surviving fraction: 0.916 ± 0.046
SAPACITABINE [12]; 5 nM
  surviving fraction: 0.946 ± 0.039
SAPACITABINE [12]; 10 nM
  surviving fraction: 0.984 ± 0.051
SAPACITABINE [12]; 50 nM
  surviving fraction: 0.965 ± 0.027
SAPACITABINE [12]; 100 nM
  surviving fraction: 0.801 ± 0.023
SAPACITABINE [12]; 500 nM
  surviving fraction: 0.555 ± 0.028
SAPACITABINE [12]; 1000 nM
  surviving fraction: 1.05 ± 0.13
CANERTINIB [13]; 0.5 nM
  surviving fraction: 0.962 ± 0.047
CANERTINIB [13]; 1 nM
  surviving fraction: 0.879 ± 0.058
CANERTINIB [13]; 5 nM
  surviving fraction: 0.866 ± 0.042
CANERTINIB [13]; 10 nM
  surviving fraction: 0.641 ± 0.032
CANERTINIB [13]; 50 nM
  surviving fraction: 0.485 ± 0.03
CANERTINIB [13]; 100 nM
  surviving fraction: 0.47 ± 0.017
CANERTINIB [13]; 500 nM
  surviving fraction: 0.323 ± 0.034
CANERTINIB [13]; 1000 nM
  surviving fraction: 0.228 ± 0.028
[14]; 0.5 nM
  surviving fraction: 0.977 ± 0.021
[14]; 1 nM
  surviving fraction: 0.929 ± 0.027
[14]; 5 nM
  surviving fraction: 0.994 ± 0.051
[14]; 10 nM
  surviving fraction: 0.945 ± 0.014
[14]; 50 nM
  surviving fraction: 0.913 ± 0.029
[14]; 100 nM
  surviving fraction: 0.668 ± 0.039
[14]; 500 nM
  surviving fraction: 0.365 ± 0.025
[14]; 1000 nM
  surviving fraction: 0.333 ± 0.012
MDV3100 [15]; 0.5 nM
  surviving fraction: 0.908 ± 0.034
MDV3100 [15]; 1 nM
  surviving fraction: 0.831 ± 0.075
MDV3100 [15]; 5 nM
  surviving fraction: 0.954 ± 0.071
MDV3100 [15]; 10 nM
  surviving fraction: 1.01 ± 0.08
MDV3100 [15]; 50 nM
  surviving fraction: 1.09 ± 0.056
MDV3100 [15]; 100 nM
  surviving fraction: 1 ± 0.014
MDV3100 [15]; 500 nM
  surviving fraction: 0.861 ± 0.088
MDV3100 [15]; 1000 nM
  surviving fraction: 0.945 ± 0.036
SNX-5422 [16]; 0.5 nM
  surviving fraction: 1.08 ± 0.073
SNX-5422 [16]; 1 nM
  surviving fraction: 1.06 ± 0.086
SNX-5422 [16]; 5 nM
  surviving fraction: 1.13 ± 0.041
SNX-5422 [16]; 10 nM
  surviving fraction: 1.17 ± 0.14
SNX-5422 [16]; 50 nM
  surviving fraction: 0.716 ± 0.05
SNX-5422 [16]; 100 nM
  surviving fraction: 0.316 ± 0.065
SNX-5422 [16]; 500 nM
  surviving fraction: 0.0417 ± 0.0046
SNX-5422 [16]; 1000 nM
  surviving fraction: 0.039 ± 0.001
